The text below walks through data of patent US9682995B2, “Amino-substituted isothiazoles” (BAYER PHARMA AKTIENGESELLSCHAFT, priority 2013, dated 2017).

The test system of experiment [1] is spindle assembly checkpoint. As to the kind of experiment: SAC-Formation - Paclitaxel-Induced Assay. It is filed as cell-based. As to conditions: Homo sapiens; HeLa cells, paclitaxel 0.05 μM, 24 h, phosphorylated histone H3 on serine 10. In short, it runs like this: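 HeLa cells were plated overnight, then given paclitaxel (0.05 μM final) plus compound (0.005-20 μM, 0.5% DMSO) for 24 h at 37° C. Fixed cells were stained for phospho-histone H3 Ser10 and with Hoechst, then imaged to give mitotic index. A fall in mitotic cells marks SAC breakthrough, and values were fit with a four-parameter Hill equation.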

In a further experiment the target is CDK2/CycE (Homo sapiens (Human), UniProt P24941). The experiment can be described thus: CDK2/CycE kinase assay (TR-FRET). It is filed as biochemical. As to conditions: 10 μM ATP; read-out: CDK2 avg (IC50 [mol/l]). In short, it runs like this: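 GST-tagged human CDK2 and GST-CycE from Sf9 cells (~130 ng/ml) were preincubated with compound for 15 min at 22 °C. Reaction with 10 μM ATP and 0.75 μM biotinylated peptide (final) ran 25 min at 22 °C, pH 8.0. Phospho-peptide was read by TR-FRET (665/620 nm ratio, anti-pRB antibody, Eu donor) and normalised to no-enzyme and no-inhibitor controls.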
(In general: Time-resolved FRET reads energy transfer from a long-lived donor to a nearby acceptor.)

In the case of `COC(=O)c1cnc(Nc2snc(C)c2C(=O)Nc2ccc(F)c(F)c2)o1` [Example 97, Methyl 2-({4-[(3,4-difluoro-phenyl)carbamoyl]-3-methyl-1,2-thiazol-5-yl}amino)-1,3-oxazole-5-carboxylate], the figures for the IC50 (in experiment [1]; at CDK2/CycE) were 8.1 µM and > 20 µM, respectively.

As for `CCOC(=O)c1coc(Nc2snc(C)c2C(=O)Nc2ccc(F)c(F)c2)n1` [Example 98, Ethyl 2-({4-[(3,4-difluoro-phenyl)carbamoyl]-3-methyl-1,2-thiazol-5-yl}amino)-1,3-oxazole-4-carboxylate], the IC50 in experiment [1] was 7.9 µM; at CDK2/CycE, > 20 µM.

With `CCNC(=O)c1csc(Nc2snc(C)c2C(=O)Nc2ccc(F)c(F)c2)n1` [Example 99, N-(3,4-Difluorophenyl)-5-{[4-(ethylcarbamoyl)-1,3-thiazol-2-yl]amino}-3-methyl-1,2-thiazole-4-carboxamide], the results for the IC50 (in experiment [1]; on CDK2/CycE) were 0.3 µM and > 20 µM, respectively.

In the case of `CCOC(=O)c1coc(Nc2snc(C)c2C(=O)Nc2ccc(OC)nc2)n1` [Example 100, Ethyl 2-({4-[(6-methoxypyridin-3-yl)carbamoyl]-3 methyl-1,2-thiazol-5-yl}amino)-1,3-oxazole-4-carboxylate], the results for the IC50 (in experiment [1]; on CDK2/CycE) were 3.4 µM and > 20 µM, respectively.

`COC(=O)c1cncc(Nc2snc(C)c2C(=O)Nc2ccc(OC)nc2)n1` [Example 101, Methyl 6-({4-[(6-methoxypyridin-3-yl)carbamoyl]-3-methyl-1,2-thiazol-5-yl}amino)pyrazine-2-carboxylate]: the IC50 in experiment [1] is 1.5 µM; at CDK2/CycE, > 20 µM.

As to `Cc1nsc(Nc2nc3c(C(F)(F)F)cccc3s2)c1C(=O)Nc1ccc(Cl)c(Cl)c1` [Example 102, N-(3,4-Dichlorophenyl)-3-methyl-5-{[4-(trifluoromethyl)-1,3-benzothiazol-2-yl]amino}-1,2-thiazole-4-carboxamide], the IC50 was 0.79 µM in experiment [1] and > 20 µM on CDK2/CycE.

In the case of `Cc1nsc(Nc2nc3c(C(F)(F)F)ccnc3s2)c1C(=O)Nc1ccc(Cl)c(F)c1` [Example 103, N-(4-Chloro-3-fluorophenyl)-3-methyl-5-{[7-(trifluoromethyl)[1,3]thiazolo[5,4-b]pyridin-2-yl]amino}-1,2-thiazole-4-carboxamide], the IC50 in experiment [1] was 0.82 µM; at CDK2/CycE it was > 20 µM.

Regarding `Cc1nsc(Nc2cncc(C(=O)N(C)C)n2)c1C(=O)Nc1ccc(F)c(F)c1` [Example 104, 6-({4-[(3,4-Difluorophenyl)-carbamoyl]-3-methyl-1,2-thiazol-5-yl}amino)-N,N-dimethyl-pyrazine-2-carboxamide], the IC50 in experiment [1] was 7.5 µM; on CDK2/CycE, > 20 µM.

As to `Cc1nsc(Nc2cncc(N(C)C)n2)c1C(=O)Nc1ccc(F)c(F)c1` [Example 105, N-(3,4-Difluorophenyl)-5-{[6-(dimethylamino)pyrazin-2-yl]amino}-3-methyl-1,2-thiazole-4-carboxamide], the results for the IC50 (in experiment [1]; at CDK2/CycE) were 20 µM and > 20 µM, respectively.

As for `Cc1nsc(Nc2cncc(C(=O)N3CCCC3)n2)c1C(=O)Nc1ccc(F)c(F)c1` [Example 106, N-(3,4-Difluorophenyl)-3-methyl-5-{[6-(pyrrolidin-1-ylcarbonyl)pyrazin-2-yl]amino}-1,2-thiazole-4-carboxamide], the values for the IC50 (in experiment [1]; on CDK2/CycE) were 0.32 µM and > 20 µM, respectively.

For `Cc1nsc(Nc2cncc(C(=O)N3CCOCC3)n2)c1C(=O)Nc1ccc(F)c(F)c1` [Example 107, N-(3,4-Difluorophenyl)-3-methyl-5-{[6-(morpholin-4-ylcarbonyl)pyrazin-2-yl]amino}-1,2-thiazole-4-carboxamide], the values for the IC50 (in experiment [1]; on CDK2/CycE) were 0.21 µM and > 20 µM, respectively.

For `CNC(=O)c1ccnc(Nc2snc(C)c2C(=O)Nc2ccc(F)c(F)c2)c1` [Example 108, 2-({4-[(3,4-Difluorophenyl)-carbamoyl]-3-methyl-1,2-thiazol-5-yl}amino)-N-methyliso-nicotinamide], the IC50 in experiment [1] is 20 µM; at CDK2/CycE, > 20 µM.

As for `Cc1nsc(Nc2cnc(C(=O)N(C)C)cn2)c1C(=O)Nc1ccc(F)c(F)c1` [Example 109, 5-({4-[(3,4-Difluorophenyl)carbamoyl]-3-methyl-1,2-thiazol-5-yl}amino)-N,N-dimethylpyrazine-2-carboxamide], the IC50 was 1.9 µM in experiment [1] and > 20 µM on CDK2/CycE.

As for `Cc1nsc(Nc2ccc(C#N)cn2)c1C(=O)Nc1ccc(OC(C)C)nc1` [Example 110, 5-[(5-Cyanopyridin-2-yl)amino]-N-(6-isopropoxyridin-3-yl)-3-methyl-1,2-thiazole-4-carboxamide], the IC50 is 3.8 µM in experiment [1] and > 20 µM on CDK2/CycE.

For `Cc1nsc(Nc2cc(C#N)ccn2)c1C(=O)Nc1ccc(Oc2ccccc2)nc1` [Example 111, 5-[(4-Cyanopyridin-2-yl)amino]-3-methyl-N-(6-phenoxypyridin-3-yl)-1,2-thiazole-4-carboxamide], the results for the IC50 (in experiment [1]; on CDK2/CycE) were 1.8 µM and > 20 µM, respectively.

With `Cc1nsc(Nc2cnc3ccccc3n2)c1C(=O)Nc1ccc(Oc2ccccc2)nc1` [Example 112, 3-Methyl-N-(6-phenoxypyridin-3-yl)-5-(quinoxalin-2-ylamino)-1,2-thiazole-4-carboxamide], the IC50 in experiment [1] was 0.057 µM; at CDK2/CycE, > 20 µM.

As for `Cc1nsc(Nc2cnc3ccccc3n2)c1C(=O)Nc1ccc(Oc2ccc(F)cc2F)nc1` [Example 113, N-[6-(2,4-Difluorophenoxy)pyridin-3-yl]-3-methyl-5-(quinoxalin-2-ylamino)-1,2-thiazole-4-carboxamide], the results for the IC50 (in experiment [1]; on CDK2/CycE) were 1 µM and > 20 µM, respectively.

For the compound `Cc1nsc(Nc2cc(C#N)ccn2)c1C(=O)Nc1ccc(Oc2ccc(F)cc2F)nc1` [Example 114, 5-[(4-Cyanopyridin-2-yl)amino]-N-[6-(2,4-difluorophenoxy)pyridin-3-yl]-3-methyl-1,2-thiazole-4-carboxamide], the figures for the IC50 (in experiment [1]; at CDK2/CycE) were 0.12 µM and > 20 µM, respectively.

For the compound `Cc1nsc(Nc2cnc3ccccc3n2)c1C(=O)Nc1ccc(OC2CCCCC2)nc1` [Example 115, N-[6-(Cyclohexyloxy)pyridin-3-yl]-3-methyl-5-(quinoxalin-2-ylamino)-1,2-thiazole-4-carboxamide], the IC50 was 0.12 µM in experiment [1] and > 20 µM at CDK2/CycE.

Take `COc1ccc(Oc2ccc(NC(=O)c3c(C)nsc3Nc3cnc4ccccc4n3)cn2)cc1` [Example 116, N-[6-(4-Methoxyphenoxy)pyridin-3-yl]-3-methyl-5-(quinoxaline-2-ylamino)-1,2-thiazole-4-carboxamide]: the IC50 is 4.8 µM in experiment [1] and > 20 µM at CDK2/CycE.

For the compound `COc1ccc(Oc2ccc(NC(=O)c3c(C)nsc3Nc3cc(C#N)ccn3)cn2)cc1` [Example 117, 5-[(4-Cyanopyridin-2-yl)amino]-N-[6-(4-methoxyphenoxy)pyridin-3-yl]-3-methyl-1,2-thiazole-4-carboxamide], the values for the IC50 (in experiment [1]; on CDK2/CycE) were 2 µM and > 20 µM, respectively.

For `Cc1nsc(Nc2cc(C#N)ccn2)c1C(=O)Nc1ccc(OC2CCCCC2)nc1` [Example 118, 5-[(4-Cyanopyridin-2-yl)amino]-N-[6-(cyclohexyloxy)pyridin-3-yl]-3-methyl-1,2-thiazole-4-carboxamide], the IC50 was 0.056 µM in experiment [1] and > 20 µM on CDK2/CycE.

Turning to `CCOc1ccc(NC(=O)c2c(C)nsc2Nc2cnc3ccccc3n2)cn1` [Example 119, N-(6-Ethoxypyridin-3-yl)-3-methyl-5-(quinoxalin-2-ylamino)-1,2-thiazole-4-carboxamide], the IC50 in experiment [1] was 2.5 µM; on CDK2/CycE it was > 20 µM.

Take `COc1ncc(NC(=O)c2c(C)nsc2Nc2ccc(C#N)cn2)cc1C` [Example 120, 5-[(5-Cyanopyridin-2-yl)amino]-N-(6-methoxy-5-methylpyridin-3-yl)-3-methyl-1,2-thiazole-4-carboxamide]: the IC50 in experiment [1] is 1.2 µM; on CDK2/CycE, > 20 µM.

On to `COc1ncc(NC(=O)c2c(C)nsc2Nc2cnc3ccccc3n2)cc1C` [Example 121, N-(6-Methoxy-5-methylpyridin-3-yl)-3-methyl-5-(quinoxalin-2-ylamino)-1,2-thiazole-4-carboxamide], for which the IC50 was 0.75 µM in experiment [1] and > 20 µM at CDK2/CycE.

`Cc1nsc(Nc2cnc3ccccc3n2)c1C(=O)Nc1ccc(OC(C)C)nc1` [Example 122, N-(6-Isopropoxypyridin-3-yl)-3-methyl-5-(quinoxalin-2-ylamino)-1,2-thiazole-4-carboxamide]: the IC50 in experiment [1] was 0.88 µM; at CDK2/CycE, > 20 µM.
